Laboratory results reported in patent publication US9096492B2, “Hydrated N-fullerene amino acids, method for producing the latter, and pharmaceutical compositions on the basis thereof” (priority 2011, dated 2015).
Where “and” joins values, the source holds several entries; their conditions need not be identical. Equal values may be shown once. Read-outs that look alike come from different tables or passages of the source.

How the values were obtained:
[1] = tested on: A/Swine/1976/31 (H1N1) influenza virus; assay type: in vivo, mice; details: Tamiflu 20 mg/kg; for Infectious virus titer (log10EID50/20 mg tissue): lung tissue
[2] = tested on: ascites Ehrlich carcinoma cells; experiment: Apoptosis in ascites Ehrlich carcinoma cells of treated mice (cytofluorimetric analysis); assay type: in vivo
[3] = tested on: solid Ehrlich carcinoma; experiment: Solid Ehrlich carcinoma in white mice, tumor size dynamics; details: Cisplatin 5 mg/kg once
[4] = tested on: Ehrlich ascites carcinoma; experiment: Ehrlich ascites carcinoma in white mice, body weight dynamics
[5] = tested on: HIV, HSV, and influenza virus; experiment: Antiviral activity of the Example 3 compound; details: against HIV
Description: The antiviral activity of the compound was studied against HIV, HSV, and influenza virus; its antitumor activity was also studied. The compound has high antitumor and antiviral activities against all of the aforementioned viruses. Preferred example embodiments of the invention are given below.

[6] = Antitumor activity of the Example 3 compound
[7] = Solubility of the isolated product
[8] = ascites cells having large sizes and granularity (tumor cells)
[9] = ascites cells of moderate size and granularity

CCOC(=O)C1=C[C@@H](OC(CC)CC)[C@H](NC(C)=O)[C@@H](N)C1.O=P(O)(O)O [Tamiflu, ethyl(3R,4R,5S)-4-acetamido-5-amino-3-(1-ethylpropoxy)-1-cyclohexene-1-carboxylate phosphate, reference compound]
Average lifetime (LD) ([1]; Summary dose, n=26): 12.2 days | Increase in LD ([1]; Summary dose, n=26): 3.6 days | Index of protection ([1]; Summary dose, n=26): 62.8 | Mortality rate, % ([1]; Summary dose, n=26): 26.9% | Number of survivors ([1]; Summary dose, n=26): 19 | Size of chronic post-influenza pneumonia sites (% of the total surface area of the lungs) ([1]; the lower of the virus doses used, day 15): 20 ± 5% | Average lifetime (LD) ([1]; virus 1 LD50, n=13): 13.5 days | Increase in LD ([1]; virus 1 LD50, n=13): 2.9 days | Index of protection ([1]; virus 1 LD50, n=13): 71.2 | Mortality rate, % ([1]; virus 1 LD50, n=13): 15.4% | Number of survivors ([1]; virus 1 LD50, n=13): 11 | Average lifetime (LD) ([1]; virus 10 LD50, n=13): 11.0 days | Increase in LD ([1]; virus 10 LD50, n=13): 4.4 days | Index of protection ([1]; virus 10 LD50, n=13): 58.6 | Mortality rate, % ([1]; virus 10 LD50, n=13): 38.5% | Number of survivors ([1]; virus 10 LD50, n=13): 8 | Infectious virus titer (log10EID50/20 mg tissue) ([1]; virus dose 1 LD50): 3.1 ± 0.1 log10EID50/20 mg tissue | Infectious virus titer (log10EID50/20 mg tissue) ([1]; virus dose 5 LD50): 3.8 ± 0.3 log10EID50/20 mg tissue

N.N.[Cl][Pt][Cl] [Cisplatin, reference compound]
AnV^+ 7AAD^+ (late apoptosis) [2, 8]: 72.8 ± 10.9% | AnV^+ 7AAD^− (early apoptosis) [2, 8]: 0.3 ± 0.3% | AnV^−7AAD^+ (necrosis) [2, 8]: 26.6% and 26.6 ± 11.1% | AnV^−7AAD^− (living cells) [2, 8]: 0.4 ± 0.2% | Percent amount of cells with the phenotype AnV^+ 7AAD^+ (late apoptosis) [2, 9]: 3.5 ± 2.4% | Percent amount of cells with the phenotype AnV^+ 7AAD^− early apoptosis [2, 9]: 41.1 ± 11.3% | Percent amount of cells with the phenotype AnV^−7AAD^+ (necrosis) [2, 9]: 0.1 ± 0.2% | Percent amount of cells with the phenotype AnV^−7AAD^− (living cells) [2, 9]: 55.2 ± 11.0% | Tumor size (mm^3) ([3]; day 8 post transplantation): 56.5 mm^3 | Tumor size (mm^3) ([3]; day 13 post transplantation): 249.2 mm^3 | Tumor size (mm^3) ([3]; day 17 post transplantation): 464.3 mm^3 | Tumor size (mm^3) ([3]; day 21 post transplantation): 1071.9 mm^3 | Tumor size (mm^3) ([3]; day 24 post transplantation): 1743.3 mm^3 | Tumor size (mm^3) ([3]; day 28 post transplantation): 1269.4 mm^3 | Animal body weight ([4]; day 1 post tumor transplantation): 19.1 ± 5 g | Animal body weight ([4]; day 3 post tumor transplantation): 19.3 ± 2.7 g | Animal body weight ([4]; day 5 post tumor transplantation): 19.4 ± 2.5 g | Animal body weight ([4]; day 8 post tumor transplantation): 19.8 ± 2.2 g | Animal body weight ([4]; day 10 post tumor transplantation): 20.7 ± 2.4 g | Animal body weight ([4]; day 13 post tumor transplantation): 21.4 ± 1.5 g | Animal body weight ([4]; day 15 post tumor transplantation): 21.8 ± 1.6 g

N-fullerene tris(8-aminooctanoic acid hydrate) [Example 3]
antiviral activity [5]: high | antitumor activity [6]: high

N-fullerene tris-ω-aminoenanthic acid) hydrate [Example 2]
solubility in CH3CN:H2O (1:10) [7]: soluble | solubility in DMF-H2O (1:100) [7]: soluble | solubility in water [7]: soluble
